The record followed here is patent US11065253B2, “Arylquinazolines” (Merck Patent GmbH, priority 2013, dated 2021).

The first test concerns phospho-serine 2056 DNA-PK in HCT116 cells. In words: DNA-PK phosphorylation at serine 2056 (cellular), ELISA in bleomycin-treated HCT116 cells. As to conditions: Homo sapiens, HCT-116, 6 h, cellular; HCT116 cells, 10 μM bleomycin, six hours; read-out: IC50 pDNA-PK. The class given is cell-based. In outline: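 HCT116 cells grown overnight were co-treated with 10 μM bleomycin and test compound for 6 h at 37 °C. Phospho-DNA-PK was quantified by chemiluminescent ELISA and normalised to total DNA-PKcs signal, with DMSO control as blank.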
Consider `COc1ccnnc1C(O)c1ccc(F)c(-c2ncnc3cc(N4CCOCC4)ccc23)c1` (centres unmarked) [Example 18, [4-Fluoro-3-(7-morpholin-4-yl-quinazolin-4-yl)phenyl]-(4-methoxy-pyridazin-3-yl)methanol], for which the IC50 – broadly, the concentration that inhibits the measured activity by half – fell in the range of 0.5 to 5 µM.

On to `Cn1c(C(O)c2ccc(F)c(-c3ncnc4cc(N5CCOCC5)ccc34)c2)cccc1=O` (centres unmarked) [Example 91, 6-{[4-Fluoro-3-(7-morpholin-4-yl-quinazolin-4-yl)-phenyl]hydroxy-methyl}-1-methyl-1H-pyridin-2-one], for which the IC50 was under 0.5 µM.

On to `COc1ccc(C(OC)c2ccc(F)c(-c3ncnc4cc(N5CCOCC5)ccc34)c2)nn1` (centres unmarked) [Example 73, 4-{2-Fluoro-5-[methoxy-(6-methoxy-pyridazin-3-yl)methyl]phenyl}-7-morpholin-4-yl-quinazoline], for which the IC50 lay in the range of 0.5 to 5 µM.

Consider `CNC(=O)c1ccc(C(O)c2cc(-c3ncnc4cc(N5CCOCC5)ccc34)c(F)cc2Cl)nn1` (centres unmarked) [Example 43, 6-{[2-Chloro-4-fluoro-5-(7-morpholin-4-yl-quinazolin-4-yl)phenyl]-hydroxymethyl}-pyridazine-3-carboxylic acid methylamide], for which the IC50 was in the range of 0.5 to 5 µM.

As for `O=C(O)c1ccc(C(O)c2cc(-c3ncnc4cc(N5CCOCC5)ccc34)c(F)cc2Cl)nn1` (centres unmarked) [Example 55, 6-{[2-Chloro-4-fluoro-5-(7-morpholin-4-yl-quinazolin-4-yl)phenyl]-hydroxymethyl}-pyridazine-3-carboxylic acid], the IC50 was in the range of 10 to 30 µM.

`Cc1nccnc1[C@@H](O)c1ccc(F)c(-c2ncnc3cc(N4CCOCC4)ccc23)c1` [Example 82, (S)-[4-Fluoro-3-(7-morpholin-4-yl-quinazolin-4-yl)-phenyl]-(3-methyl-pyrazin-2-yl)methanol]: the IC50 lay within 0.5 to 5 µM.

Regarding `OC(c1cc(-c2ncnc3cc(N4CCOCC4)ccc23)c(F)cc1Cl)c1nccnc1Cl` (centres unmarked) [Example 64, [2-Chloro-4-fluoro-5-(7-morpholin-4-yl-quinazolin-4-yl)phenyl]-(3-chloropyrazin-2-yl)-methanol], the IC50 is under 0.5 µM.

Still in this test, the particulars now being: Homo sapiens, HCT-116, cellular DNA-PK phosphorylation at serine 2056, HCT116 cells; read-out: IC50 pDNA-PK.
As to `OC(c1ccc(F)c(-c2ncnc3cc(N4CCOCC4)ccc23)c1)c1nnc2ccccn12` (centres unmarked) [Example 399, [4-Fluoro-3-(7-morpholin-4-yl-quinazolin-4-yl)-phenyl]-[1,2,4]-triazolo[4,3-a]pyridin-3-ylmethanol], the IC50 is 0.5 to 5 µM.

For `Cn1c(C(O)c2cc(-c3ncnc4cc(N5CCOCC5)ccc34)c(F)cc2Cl)nccc1=O` (centres unmarked) [Example 368, 2-{[2-Chloro-4-fluoro-5-(7-morpholin-4-yl-quinazolin-4-yl)-phenyl]hydroxy-methyl}-3-methyl-3H-pyrimidin-4-one], the IC50 was in the range of 5 to 10 µM.

Take `Cn1ncc2c(C(O)c3cc(-c4ncnc5cc(N6CCOCC6)ccc45)c(F)cc3F)ncnc21` (centres unmarked) [Example 403, [2,4-Difluoro-5-(7-morpholin-4-yl-quinazolin-4-yl)-phenyl]-(1-methyl-1H-pyrazolo[3,4-d}-pyrimidin-4-yl)-methanol]: the IC50 fell in the range of 0.5 to 5 µM.

`Cn1cnc2c(C(O)c3cc(-c4ncnc5cc(N6CCOCC6)ccc45)c(F)cc3F)ncnc21` (centres unmarked) [Example 421, [2,4-Difluoro-5-(7-morpholin-4-yl-quinazolin-4-yl)-phenyl]-(9-methyl-9H-purin-6-yl)-methanol]: the IC50 lay within 0.5 to 5 µM.

Take `OC(c1cc(-c2ncnc3cc(N4CCOCC4)ccc23)c(F)cc1F)c1ncnc2ccoc12` (centres unmarked) [Example 444, [2,4-Difluoro-5-(7-morpholin-4-yl-quinazolin-4-yl)-phenyl]furo[3,2-d}-pyrimidin-4-yl-methanol]: the IC50 lay in the range of 0.5 to 5 µM.

As to `OC(c1cc(-c2ncnc3cc(N4CCOCC4)ccc23)ccc1F)c1ncnc2sccc12` (centres unmarked) [Example 406, [2-Fluoro-5-(7-morpholin-4-yl-quinazolin-4-yl)-phenyl]thieno[2,3-d}-pyrimidin-4-yl-methanol], the IC50 was under 0.5 µM.

For the molecule `O=c1ccc(C(O)c2ccc(F)c(-c3ncnc4cc(N5CCOCC5)ccc34)c2)n[nH]1` (centres unmarked) [Example 367, 6-{[4-Fluoro-3-(7-morpholin-4-yl-quinazolin-4-yl)phenyl]-hydroxymethyl}-2H-pyridazin-3-one], the 50% inhibitory concentration (IC50) is 0.5 to 5 µM.

The same test, now with this note: Homo sapiens, HCT-116, phospho-serine 2056 DNA-PK, bleomycin-treated HCT116 cells; class symbols A-D; read-out: IC50 pDNA-PK.
Take `COC(=O)COc1ccc(C(O)c2cc(-c3ncnc4cc(N5CCOCC5)ccc34)c(F)cc2Cl)nn1` (centres unmarked) [Example 114, (6-{[2-Chloro-4-fluoro-5-(7-morpholin-4-yl-quinazolin-4-yl)-phenyl]hydroxy-methyl}pyridazin-3-yl-oxy)acetic acid methyl ester]: the IC50 is 10 to 30 µM.

With `Fc1ccc(C(OC(F)F)c2nccs2)cc1-c1ncnc2cc(N3CCOCC3)ccc12` (centres unmarked) [Example 199, 4-[5-(Difluoro-methoxy-thiazol-2-ylmethyl)-2-fluoro-phenyl]-7-morpholin-4-yl-quinazoline], the IC50 was 10 to 30 µM.

In the case of `OC(c1ccc(OCC(F)(F)F)nn1)c1cc(-c2ncnc3cc(N4CCOCC4)ccc23)c(F)cc1Cl` (centres unmarked) [Example 115, [2-Chloro-4-fluoro-5-(7-morpholin-4-yl-quinazolin-4-yl)-phenyl]-[6-(2,2,2-trifluoro-ethoxy)-pyridazin-3-yl]-methanol], the IC50 was in the range of 0.5 to 5 µM.

The test is the same for the next values; noted with them: Homo sapiens, HCT-116, phospho-serine 2056 DNA-PK, bleomycin-treated HCT116 cells; read-out: IC50 pDNA-PK.
For `O=c1[nH]nc(C(O)c2ccc(F)c(-c3ncnc4cc(N5CCOCC5)ccc34)c2)c2ccsc12` (centres unmarked) [Example 338, 4-[[4-Fluoro-3-(7-morpholino-quinazolin-4-yl)-phenyl]hydroxy-methyl]-6H-thieno[2,3-d}-pyridazin-7-one], the half-inhibitory concentration (IC50) is 0.5 to 5 µM.

Regarding `Cc1nccnc1/C(C(=O)O)=C1/C=CC(=O)C(c2ncnc3cc(N4CCOCC4)ccc23)=C1` [Example 331, (3-methyl-pyrazin-2-yl)-[3-(7-morpholin-4-ylquinazolin-4-yl)-4-oxocyclohexa-2,5-dien-(E)-ylidene]-acetic acid], the IC50 fell in the range of 5 to 10 µM.

On to `OC(c1ccc(F)c(-c2ncnc3cc(N4CCOCC4)ccc23)c1)c1nccc2ccoc12` (centres unmarked) [Example 328, [4-Fluoro-3-(7-morpholin-4-yl-quinazolin-4-yl)-phenyl]furo[2,3-c]-pyridin-7-ylmethanol], for which the half-inhibitory concentration (IC50) is under 0.5 µM.

On to `NC(=O)C(c1ccc2nccn2n1)c1cc(-c2ncnc3cc(N4CCOCC4)ccc23)c(F)cc1Cl` (centres unmarked) [Example 323, 2-[2-Chloro-4-fluoro-5-(7-morpholin-4-yl-quinazolin-4-yl)-phenyl]-2-imidazo-[1,2-b]pyridazin-6-yl-acetamide], for which the IC50 fell in the range of 0.5 to 5 µM.

As for `COc1nccnc1C(C(N)=O)c1cc(-c2ncnc3cc(N4CCOCC4)ccc23)c(F)cc1Cl` (centres unmarked) [Example 320, 2-[2-Chloro-4-fluoro-5-(7-morpholin-4-yl-quinazolin-4-yl)-phenyl]-2-(3-methoxy-pyrazin-2-yl)acetamide], the IC50 is 0.5 to 5 µM.

In the case of `Cc1cnc(C(C(N)=O)c2ccc(F)c(-c3ncnc4cc(N5CCOCC5)ccc34)c2)c(C)n1` (centres unmarked) [Example 318, 2-(3,5-Dimethyl-pyrazin-2-yl)-2-[4-fluoro-3-(7-morpholin-4-yl-quinazolin-4-yl)-phenyl]acetamide], the IC50 was 10 to 30 µM.

`Cc1cnc(C(O)c2cc(-c3ncnc4cc(N5CCOCC5)ccc34)c(F)cc2F)c(C)n1` (centres unmarked) [Example 355, [2,4-Difluoro-5-(7-morpholin-4-yl-quinazolin-4-yl)-phenyl]-(3,5-dimethyl-pyrazin-2-yl)methanol]: the IC50 was in the range of 0.5 to 5 µM.

With `COc1nccnc1C(C(N)=O)c1ccc(F)c(-c2ncnc3cc(N4CCOCC4)ccc23)c1` (centres unmarked) [Example 305, 2-[4-Fluoro-3-(7-morpholin-4-yl-quinazolin-4-yl)-phenyl]-2-(3-methoxy-pyrazin-2-yl)acetamide], the IC50 lay in the range of 5 to 10 µM.

In the case of `NC(=O)C(c1cc(-c2ncnc3cc(N4CCOCC4)ccc23)c(F)cc1F)c1nccn2cccc12` (centres unmarked) [Example 348, 2-[2,4-Difluoro-5-(7-morpholin-4-yl-quinazolin-4-yl)-phenyl]-2-pyrrolo-[1,2-a]pyrazin-1-yl-acetamide], the IC50 was in the range of 0.5 to 5 µM.

The test is the same for the next values; noted with them: cellular DNA-PK phosphorylation at serine 2056, HCT116 cells; read-out: IC50 pDNA-PK.
`Cc1cncnc1C(O)c1cc(-c2ncnc3cc(N4CCOCC4)ccc23)ccc1Cl` (centres unmarked) [Example 419, [2-Chloro-5-(7-morpholin-4-yl-quinazolin-4-yl)-phenyl]-(5-methyl-pyrimidin-4-yl)-methanol]: the IC50 lay in the range of 0.5 to 5 µM.

Turning to `Cn1c(C(O)c2ccc(F)c(-c3ncnc4cc(N5CCOCC5)ccc34)c2)cccc1=O` (centres unmarked) [Example 376, 6-{[4-Fluoro-3-(7-morpholin-4-yl-quinazolin-4-yl)-phenyl]hydroxy-methyl}-1-methyl-1H-pyridin-2-one (Ena 1)], the IC50 is under 0.5 µM.

On to `Cn1c(C(O)c2cc(-c3ncnc4cc(N5CCOCC5)ccc34)c(F)cc2F)cccc1=O` (centres unmarked) [Example 436, 6-{[2,4-Difluoro-5-(7-morpholin-4-yl-quinazolin-4-yl)-phenyl]hydroxy-methyl}-1-methyl-1H-pyridin-2-one], for which the IC50 was 0.5 to 5 µM.

Regarding `OC(c1cc(-c2ncnc3cc(N4CCOCC4)ccc23)c(F)cc1F)c1nccnc1OC(F)F` (centres unmarked) [Example 449, (3-Difluoromethoxy-pyrazin-2-yl)-[2,4-difluoro-5-(7-morpholin-4-yl-quinazolin-4-yl)-phenyl]methanol], the IC50 lay in the range of 0.5 to 5 µM.

Staying with this test, now noted: phospho-serine 2056 DNA-PK, bleomycin-treated HCT116 cells; read-out: IC50 pDNA-PK.
In the case of `Cn1cnc2c(C(O)c3cc(-c4ncnc5cc(N6CCOCC6)ccc45)c(F)cc3F)ncnc21` (centres unmarked) [Example 347, [2,4-Difluoro-5-(7-morpholin-4-yl-quinazolin-4-yl)-phenyl]-(9-methyl-9H-purin-6-yl)-methanol (Ena 1)], the IC50 was in the range of 0.5 to 5 µM.

With `Cn1c(C(O)c2cc(-c3ncnc4cc(N5CCOCC5)ccc34)ccc2Cl)cccc1=O` (centres unmarked) [Example 364, 6-{[2-Chloro-5-(7-morpholin-4-yl-quinazolin-4-yl)-phenyl]hydroxy-methyl}-1-methyl-1H-pyridin-2-one (Ena 1)], the IC50 was under 0.5 µM.
